{"source": "paper PMC9299796", "about": "“A Specialized Dehydrogenase Provides L‐Phenyllactate for FR900359 Biosynthesis” (Chembiochem, 2021)", "tested_on": "FrsC", "conditions": "0.5 mM NADPH, pH 6, 30 °C, 1 μM FrsC, tag removed", "data": [{"molecule": "O=C(O)C(=O)Cc1ccccc1", "note": "[phenylpyruvic acid]", "values": [{"measurement": "Km", "result": "1370 ± 410", "unit": "µM"}]}]}
